Measurements published in ChEMBL document CHEMBL1130038, “1,2-Diarylpyrroles as potent and selective inhibitors of cyclooxygenase-2” (J Med Chem, 1997).
Each block holds one molecule with its values, some of them ahead of it.

Legend:
[1] = target: T1, Prostaglandin G/H synthase 1 (Homo sapiens, UniProt P23219)
Description: In vitro inhibitory activity against human prostaglandin G/H synthase 1

[2] = target: T2, Prostaglandin G/H synthase 2 (Homo sapiens, UniProt P35354)
T2 sequence (P35354 whole entry): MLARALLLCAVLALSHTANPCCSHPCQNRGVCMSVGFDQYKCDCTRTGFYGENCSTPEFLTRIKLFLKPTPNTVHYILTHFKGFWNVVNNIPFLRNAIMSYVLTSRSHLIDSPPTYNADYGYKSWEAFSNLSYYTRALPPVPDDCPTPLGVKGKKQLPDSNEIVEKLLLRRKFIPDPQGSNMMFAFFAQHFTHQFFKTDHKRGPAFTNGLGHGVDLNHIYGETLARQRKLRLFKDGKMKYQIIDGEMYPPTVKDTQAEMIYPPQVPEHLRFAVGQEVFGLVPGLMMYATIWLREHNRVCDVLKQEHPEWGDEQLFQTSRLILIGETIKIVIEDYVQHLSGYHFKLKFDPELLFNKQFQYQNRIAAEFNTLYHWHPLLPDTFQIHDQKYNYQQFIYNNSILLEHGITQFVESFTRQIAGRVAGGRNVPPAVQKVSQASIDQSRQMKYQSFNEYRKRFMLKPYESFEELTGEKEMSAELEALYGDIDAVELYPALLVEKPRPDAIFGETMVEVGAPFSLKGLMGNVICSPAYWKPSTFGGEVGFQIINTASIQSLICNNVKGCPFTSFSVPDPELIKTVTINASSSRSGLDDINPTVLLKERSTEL

[3] = target: T1, Prostaglandin G/H synthase 1; remark: listed apart in the source
Rattus norvegicus [4] = species: Rattus norvegicus; test: animal or person; details: po, read-out: Inhibition
[5] = target: T2, Prostaglandin G/H synthase 2; remark: listed apart in the source
Description: In vitro inhibitory activity against human Prostaglandin G/H synthase 2; NA indicates inactive

[6] = target: T1, Prostaglandin G/H synthase 1; remark: listed apart in the source
Description: In vitro inhibitory activity against human Prostaglandin G/H synthase 1; NA indicates inactive

[7] = target: T1, Prostaglandin G/H synthase 1; type: functional, cell-based, HL-60
Description: In vitro inhibitory activity against Prostaglandin G/H synthase 1 in retinoic acid stimulated HL-60 cells

Homo sapiens [8] = species: Homo sapiens; test: tissue or blood
Homo sapiens [9] = species: Homo sapiens; test: tissue or blood; remark: listed apart in the source
Description: Ability to inhibit LPS-induced PGE-2 production in human whole blood

Homo sapiens [10] = species: Homo sapiens; test: tissue or blood; remark: listed apart in the source
Description: Inhibition of LPS-induced PGE-2 production in the human whole blood.

Homo sapiens [11] = species: Homo sapiens; test: tissue or blood; remark: listed apart in the source
Description: Inhibition of TXB2 production in the human whole blood.

Rattus norvegicus [12] = species: Rattus norvegicus; test: animal or person; details: po, read-out: Inhibition; remark: listed apart in the source

T1 sequence (P23219 whole entry): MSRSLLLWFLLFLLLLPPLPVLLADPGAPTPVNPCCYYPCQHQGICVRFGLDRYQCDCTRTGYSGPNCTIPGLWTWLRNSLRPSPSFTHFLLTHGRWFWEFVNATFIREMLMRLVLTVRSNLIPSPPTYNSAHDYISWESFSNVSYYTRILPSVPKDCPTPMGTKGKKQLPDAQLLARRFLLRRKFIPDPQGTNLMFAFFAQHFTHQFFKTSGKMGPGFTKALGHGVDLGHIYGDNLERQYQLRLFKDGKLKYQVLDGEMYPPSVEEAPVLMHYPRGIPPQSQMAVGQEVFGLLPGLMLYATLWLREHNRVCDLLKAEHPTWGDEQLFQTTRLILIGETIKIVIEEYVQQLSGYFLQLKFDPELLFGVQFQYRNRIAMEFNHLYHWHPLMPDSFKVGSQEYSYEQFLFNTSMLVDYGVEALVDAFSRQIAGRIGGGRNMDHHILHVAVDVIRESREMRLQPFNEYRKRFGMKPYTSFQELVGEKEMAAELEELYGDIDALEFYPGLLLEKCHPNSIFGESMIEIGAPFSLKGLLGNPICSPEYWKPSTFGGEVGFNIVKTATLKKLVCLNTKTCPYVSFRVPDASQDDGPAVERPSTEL

SMILES: CS(=O)(=O)c1cccc(-n2cccc2-c2ccc(F)cc2)c1
IC50 [1]: > 100 µM

SMILES: CCN(CC)OC(=O)c1ccc(-n2c(C)ccc2-c2ccc(F)cc2)cc1
IC50 [2]: Active
IC50 [3]: Active

SMILES: Cc1ccc(-c2ccc(S(C)(=O)=O)cc2)n1-c1ccccc1
inhibition in vivo at 10 mg/kg (Rattus norvegicus [4]): 21%

SMILES: CCCCn1c(C)ccc1-c1ccc(S(C)(=O)=O)cc1
IC50 [1]: > 100 µM
inhibition in vivo at 10 mg/kg (Rattus norvegicus [4]): 1%

SMILES: COc1ccc(-c2ccc(C)n2-c2ccc(C(C)=O)cc2)cc1
IC50 [5]: Not Active
IC50 [6]: Not Active

SMILES: Cc1ccc(-c2ccc(S(C)(=O)=O)cc2)n1-c1ccc(F)c(F)c1
inhibition in vivo at 10 mg/kg (Rattus norvegicus [4]): 17%

SMILES: Cc1c(Br)cc(-c2ccc(S(C)(=O)=O)cc2)n1-c1ccc(F)cc1
inhibition in vivo at 10 mg/kg (Rattus norvegicus [4]): 34%

SMILES: Cc1ccc(-c2ccc(S(C)(=O)=O)cc2)n1-c1ccc(C(F)(F)F)cc1
inhibition in vivo at 10 mg/kg (Rattus norvegicus [4]): 31%

SMILES: O=S(=O)(c1ccccc1)c1ccc(-n2cccc2-c2ccc(F)cc2)cc1
IC50 [1]: > 100 µM

SMILES: NS(=O)(=O)c1ccc(-n2cccc2-c2ccc(F)cc2)cc1
inhibition in vivo at 10 mg/kg (Rattus norvegicus [4]): 30%

SMILES: Cc1c(C(Oc2cccc(Cl)c2)C(F)(F)F)cc(-c2ccc(S(C)(=O)=O)cc2)n1-c1ccc(F)cc1 (stereo not given)
IC50 [1]: > 100 µM

SMILES: COc1ccc(-c2ccc(CCC(=O)O)n2-c2ccc(C(C)=O)cc2)cc1
IC50 [7]: 1 µM
IC50 [1]: 25 µM
IC50 (Homo sapiens [8]): 0.3 µM
IC50 (Homo sapiens [9]): 1.5 µM

SMILES: Cc1ccc(-n2c(C)ccc2-c2ccc(S(C)(=O)=O)cc2)cc1
inhibition in vivo at 10 mg/kg (Rattus norvegicus [4]): 25%

SMILES: Cc1ccc(-c2ccc(S(C)(=O)=O)cc2)n1C(C)C
IC50 [1]: > 100 µM

SMILES: Cc1ccc(-c2ccc(S(C)(=O)=O)cc2)n1C1CCCCC1
IC50 [1]: > 100 µM

SMILES: CS(=O)(=O)c1ccc(-n2cccc2-c2ccc(F)cc2)cc1
inhibition in vivo at 10 mg/kg (Rattus norvegicus [4]): 42%

SMILES: Cc1ccc(-c2ccc(S(C)(=O)=O)cc2)[nH]1
IC50 [1]: > 100 µM

SMILES: CC(=O)c1cc(-c2ccc(S(C)(=O)=O)cc2)n(-c2ccc(F)cc2)c1C
inhibition in vivo at 10 mg/kg (Rattus norvegicus [4]): 13%

SMILES: Cc1c(C(O)C(F)(F)F)cc(-c2ccc(S(C)(=O)=O)cc2)n1-c1ccc(F)cc1 (stereo not given)
inhibition in vivo at 20 mg/kg (Rattus norvegicus [12]): 15%

SMILES: CS(=O)(=O)c1ccc(-n2cccc2-c2ccc(F)cc2)cc1Cl
IC50 [1]: > 100 µM

Continued, in another order:

IC50 [1]: > 100 µM
SMILES: Cc1ccc(-c2ccc(S(C)(=O)=O)cc2)n1Cc1ccc(F)cc1

IC50 [1]: > 100 µM
SMILES: Cc1ccc(-c2ccc(F)cc2)n1-c1ccc(S(C)(=O)=O)cc1

IC50 [1]: > 100 µM
SMILES: CS(=O)(=O)c1ccc(-c2ccc(CCC(=O)O)n2-c2ccc(F)cc2)cc1

IC50 [1]: > 100 µM
SMILES: CNS(=O)(=O)c1ccc(-n2cccc2-c2ccc(F)cc2)cc1

IC50 [5]: Not Active
IC50 [6]: Not Active
SMILES: Cc1ccc(-c2ccc(F)cc2)n1-c1ccc([S+](C)[O-])cc1 (stereo not given)

IC50 [1]: > 100 µM
SMILES: CCS(=O)(=O)c1ccc(-n2cccc2-c2ccc(F)cc2)cc1

IC50 [1]: > 100 µM
SMILES: Cc1c(CN(C)C)cc(-c2ccc(S(C)(=O)=O)cc2)n1-c1ccc(F)cc1

IC50 [1]: > 100 µM
SMILES: Cc1ccc(-c2ccc(S(C)(=O)=O)cc2)n1-c1ccc(F)cc1
inhibition in vivo at 10 mg/kg (Rattus norvegicus [4]): 25%

IC50 [1]: > 100 µM
SMILES: CS(=O)(=O)c1ccc(-c2cccn2-c2ccc(F)cc2)cc1

IC50 [1]: > 100 µM
SMILES: Cc1c(COc2cccc(Cl)c2)cc(-c2ccc(S(C)(=O)=O)cc2)n1-c1ccc(F)cc1

IC50 (Homo sapiens [10]): 4.4 µM
IC50 (Homo sapiens [11]): > 50 µM
SMILES: CN(C)S(=O)(=O)c1ccc(-n2c(CCC(=O)O)ccc2-c2ccc(F)cc2)cc1

IC50 [1]: > 100 µM
SMILES: Cc1c(COc2ccc(Cl)cc2)cc(-c2ccc(S(C)(=O)=O)cc2)n1-c1ccc(F)cc1

IC50 [1]: > 100 µM
SMILES: CCc1ccc(-c2ccc(S(C)(=O)=O)cc2)n1-c1ccc(F)cc1

IC50 [5]: Not Active
IC50 [6]: Not Active
SMILES: CC(=O)c1ccc(-n2c(C)ccc2-c2ccc(F)cc2)cc1

IC50 [1]: > 100 µM
SMILES: Cc1c(S(=O)(=O)C(F)(F)F)cc(-c2ccc(S(C)(=O)=O)cc2)n1-c1ccc(F)cc1
inhibition in vivo at 20 mg/kg (Rattus norvegicus [12]): 30%

IC50 [1]: > 100 µM
SMILES: CN(C)S(=O)(=O)c1ccc(-n2cccc2-c2ccc(F)cc2)cc1

IC50 [1]: > 100 µM
SMILES: CS(=O)(=O)c1ccc(-c2ccc(C(F)(F)F)n2-c2ccc(F)cc2)cc1

IC50 [5]: Not Active
IC50 [6]: Not Active
SMILES: COC(=O)c1ccc(-n2c(C)ccc2-c2ccc(F)cc2)cc1
